Experimental data taken from patent US8575168B2, “Compounds and compositions as modulators of GPR119 activity” (IRM LLC, priority 2009, dated 2013).

Molecular target: T1, human GPR119 (Homo sapiens, UniProt Q8TDV5)
T1 construct: expressed in transfected cells
T1 sequence (Q8TDV5 1-335): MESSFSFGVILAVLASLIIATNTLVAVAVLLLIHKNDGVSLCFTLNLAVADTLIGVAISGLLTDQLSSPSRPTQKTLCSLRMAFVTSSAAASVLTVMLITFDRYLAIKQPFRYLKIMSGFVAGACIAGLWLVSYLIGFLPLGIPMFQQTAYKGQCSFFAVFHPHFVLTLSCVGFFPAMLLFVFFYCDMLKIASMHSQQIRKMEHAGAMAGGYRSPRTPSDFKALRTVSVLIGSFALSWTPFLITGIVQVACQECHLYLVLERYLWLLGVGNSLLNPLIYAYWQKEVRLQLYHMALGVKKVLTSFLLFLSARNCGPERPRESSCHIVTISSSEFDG
Assay: Cyclic AMP Assay in Stable Cell Line (HTRF)
Assay type: cell-based
Details: Flp-In-CHO-hGPR119 cells, intracellular cAMP, 30 minutes at 37° C., 1 mM IBMX
Method: Flp-In-CHO cells (Invitrogen, Cat. #R758-07) are maintained in Ham's F12 medium supplemented with 10% fetal bovine serum, 1% antibiotic mixture and 2 mM L-glutamine. The cells are transfected with a DNA mixture containing human GPR119 in pcDNA5/FRT vector and the pOG44 vector (1:9) using Fugene6 (Roche), according to the manufacturer's instruction. After 48 hours, the medium is changed to medium supplemented with 400 μg/ml hygromycin B to initiate the selection of stably transfected cells.
To test the activity of compounds of the invention, Flp-In-CHO-hGPR119 cells are harvested and resuspended in DMEM plus 3% lipid-depleted fetal bovine serum. Forth μl of cells are plated in 384 well plates at a density of 15,000 cells/well. IBMX (3-isobutyl-1-methyl-xanthine) is added to the cells to a final concentration of 1 mM, followed by the addition of 500 nl of the compound to be tested. The cells are incubated at 37° C. for 30 minutes. Equal volume (20 μl) of the HTRF reagents, anti-cAMP-Cryptate and cAMP-XL665, are added to the cells. The plates are incubated at room temperature for 1 hour and read on a HTRF reader according to the manufacturer's instruction.

Row | Structure (SMILES) | EC50
1 | CC(C)c1noc(CN2CC(Oc3c(F)cc(C4CCN(S(C)(=O)=O)CC4)cc3F)C2)n1 [Example B9] | 76 nM
2 | O=C(N1CC=C(c2cc(F)c(OC3CN(Cc4ccc(C(F)(F)F)cc4)C3)c(F)c2)CC1)C(F)(F)F [Example A35] | 688 nM
3 | CS(=O)(=O)N1CCC(c2cc(F)c(OC3CN(Cc4ncc(C(F)(F)F)cc4Cl)C3)c(F)c2)CC1 [Example A26] | 330 nM
4 | CS(=O)(=O)N1CCC(c2cc(F)c(OC3CCN(Cc4nc(C(F)F)no4)CC3)c(F)c2)CC1 [Example B5] | 49 nM
5 | CCCS(=O)(=O)N1CCN(c2ccc(OC3CN(Cc4ccc(C(F)(F)F)cc4)C3)cn2)C(=O)C1 [Example A20] | 9 nM
6 | CS(=O)(=O)N1CCC(c2cc(F)c(OC3CCN(Cc4nc(C(F)(F)F)cs4)CC3)c(F)c2)CC1 [Example B16] | 9 nM
7 | CS(=O)(=O)N1CCC(c2cc(F)c(OC3CN(Cc4noc(C(F)(F)F)n4)C3)c(F)c2)CC1 [Example B23] | 210 nM
8 | CS(=O)(=O)N1CCC(c2cc(F)c(OC3CN(Cc4ccc(C5(F)COC5)cc4)C3)c(F)c2)CC1 [Example A28] | 49 nM
9 | CS(=O)(=O)N1CCC(c2cc(F)c(OC3CN(Cc4nc(C(F)(F)F)cs4)C3)c(F)c2)CC1 [Example B17] | 74 nM
10 | CCC(c1ccc(C(F)(F)F)cc1)N1CC(Oc2c(F)cc(C3CCN(S(C)(=O)=O)CC3)cc2F)C1 (centres unmarked) [Example A25] | 246 nM
11 | CS(=O)(=O)N1CCN(c2ncc(OC3CN(Cc4ccc(C(F)(F)F)cc4)C3)cn2)CC1 [Example A42] | 149 nM
12 | CS(=O)(=O)N1CCN(c2ccc(OC3CN(Cc4ccc(C(F)(F)F)cc4)C3)c(F)c2)CC1 [Example A43] | 115 nM
13 | CS(=O)(=O)N1CCC(c2c(F)cc(OC3CCN(Cc4nc(C(F)(F)F)no4)CC3)cc2F)CC1 [Example B29] | 50 nM
14 | CS(=O)(=O)N1CCN(c2ccc(OC3CN(Cc4cccc(C(F)(F)F)c4)C3)cn2)CC1 [Example A16] | 884 nM
15 | CC(C)c1noc(CN2CCC(Oc3c(F)cc(C4CCN(S(C)(=O)=O)CC4)cc3F)CC2)n1 [Example B24] | 6 nM
16 | CS(=O)(=O)N1CCC(c2cc(F)c(OC3CCN(Cc4nc(C(F)(F)F)no4)CC3)c(F)c2)CC1 [Example B1, 5-((4-(2,6-Difluoro-4-(1-(methylsulfonyl)piperidin-4-yl)phenoxy)piperidin-1-yl)methyl)-3-(trifluoromethyl)-1,2,4-oxadiazole] | 7 nM
17 | Cn1nc(C(F)(F)F)nc1CN1CCC(Oc2c(F)cc(C3CCN(S(C)(=O)=O)CC3)cc2F)CC1 [Example B20] | 208 nM
18 | CS(=O)(=O)N1CCN(c2cc(F)c(OC3CN(Cc4ccc(C(F)(F)F)cc4)C3)c(F)c2)CC1 [Example A32] | 145 nM
19 | CS(=O)(=O)N1CCC(c2cc(F)c(OC3CN(Cc4cccc5ccccc45)C3)c(F)c2)CC1 [Example A31] | 652 nM
20 | CS(=O)(=O)N1CC=C(c2cc(F)c(OC3CN(Cc4ccc(C(F)(F)F)cc4)C3)c(F)c2)CC1 [Example A34] | 12 nM
21 | O=S(=O)(CCCO)N1CCC(c2cc(F)c(OC3CN(Cc4ccc(C(F)(F)F)cc4)C3)c(F)c2)CC1 [Example A41] | 36 nM
22 | Cn1nc(C(F)(F)F)cc1CN1CC(Oc2c(F)cc(C3CCN(S(C)(=O)=O)CC3)cc2F)C1 [Example B15] | 97 nM
23 | CC(C)(C)OC(=O)N1CCC(S(=O)(=O)N2CCC(c3cc(F)c(OC4CN(Cc5ccc(C(F)(F)F)cc5)C4)c(F)c3)CC2)CC1 [Example A37] | 325 nM
24 | CC(Cc1ccc(C(F)(F)F)cc1)N1CC(Oc2c(F)cc(C3CCN(S(C)(=O)=O)CC3)cc2F)C1 (centres unmarked) [Example A24] | 177 nM
25 | CC1(Oc2c(F)cc(C3CCN(S(C)(=O)=O)CC3)cc2F)CN(Cc2ccc(C(F)(F)F)cc2)C1 [Example C3] | 644 nM
26 | CC(C)c1ccc(CN2CC(Oc3cnc(N4CCN(S(C)(=O)=O)CC4)cn3)C2)cc1 [Example A11] | 22 nM
27 | CS(=O)(=O)N1CCC(c2cc(F)c(OC3CCN(Cc4ccc(C(F)(F)F)cc4)CC3)c(F)c2)CC1 [Example A5] | 9 nM

Row | Structure (SMILES) | EC50
28 | CS(=O)(=O)N1CCN(c2cnc(OC3CN(Cc4ccc(C(F)(F)F)cc4)C3)cn2)CC1 [Example A6, 2-(4-(methylsulfonyl)piperazin-1-yl)-5-(1-(4-(trifluoromethyl)benzyl)azetidin-3-yloxy)pyrazine] | 69 nM
29 | COc1ccc(CN2CC(Oc3ccc(N4CCN(S(C)(=O)=O)CC4)nc3)C2)cc1 [Example A12] | 341 nM
30 | CS(=O)(=O)N1CCC(c2cc(F)c(OC3CN(Cc4nc(C(F)(F)F)no4)C3)c(F)c2)CC1 [Example B12] | 55 nM
31 | CS(=O)(=O)N1CCC(c2cc(F)c(OC3CCN(Cc4ccc(C(F)(F)F)cc4)C3)c(F)c2)CC1 (centres unmarked) [Example C1, 4-(3,5-Difluoro-4-(1-(4-(trifluoromethyl)benzyl)pyrrolidin-3-yloxy)phenyl)-1-(methylsulfonyl)piperidine] | 144 nM
32 | CS(=O)(=O)N1CCN(c2cnc(OC3CCN(Cc4nc(C(F)(F)F)no4)CC3)cn2)CC1 [Example B4, 5-((4-(5-(4-(Methylsulfonyl)piperazin-1-yl)pyrazin-2-yloxy)piperidin-1-yl)methyl)-3-(trifluoromethyl)-1,2,4-oxadiazole] | 757 nM
33 | O=S(=O)(C1CCNC1)N1CCC(c2cc(F)c(OC3CN(Cc4ccc(C(F)(F)F)cc4)C3)c(F)c2)CC1 (centres unmarked) [Example A40] | 576 nM
34 | CC(C)(C)c1noc(CN2CC(Oc3c(F)cc(C4CCN(S(C)(=O)=O)CC4)cc3F)C2)n1 [Example B8] | 286 nM
35 | CS(=O)(=O)N1CCC(F)(c2cc(F)c(OC3CCN(Cc4nc(C(F)(F)F)no4)CC3)c(F)c2)CC1 [Example D1, 5-((4-(2,6-difluoro-4-(4-fluoro-1-(methylsulfonyl)piperidin-4-yl)phenoxy)piperidin-1-yl)methyl)-3-(trifluoromethyl)-1,2,4-oxadiazole] | 199 nM
36 | CS(=O)(=O)N1CCC(c2cc(F)c(OC3CN(Cc4ccc5ccccc5c4)C3)c(F)c2)CC1 [Example A30] | 135 nM
37 | CS(=O)(=O)N1CCC(c2cc(F)c(OC3CCCN(Cc4ccc(C(F)(F)F)cc4)CC3)c(F)c2)CC1 (centres unmarked) [Example C2] | 125 nM
38 | CC(F)(F)c1noc(CN2CCC(Oc3c(F)cc(C4CCN(S(C)(=O)=O)CC4)cc3F)CC2)n1 [Example B3, 5-((4-(2,6-difluoro-4-(1-(methylsulfonyl)piperidin-4-yl)phenoxy)piperidin-1-yl)methyl)-3-(1,1-difluoroethyl)-1,2,4-oxadiazole] | 16 nM
39 | CS(=O)(=O)N1CCN(c2cc(F)c(OC3CN(Cc4ccc(C(F)(F)F)cc4)C3)c(F)c2)C(=O)C1 [Example A33] | 331 nM
40 | CS(=O)(=O)N1CCC(c2cc(F)c(OC3CN(Cc4nc(C5CC5)no4)C3)c(F)c2)CC1 [Example B10] | 131 nM
41 | CS(=O)(=O)N1CCC(c2cc(F)c(OC3CN(Cc4ccc(C(F)(F)F)cc4)C3)c(F)c2)CC1 [Example A7, 4-(3,5-difluoro-4-(1-(4-(trifluoromethyl)benzyl)azetidin-3-yloxy)phenyl)-1-(methylsulfonyl)piperidineine] | 13 nM
42 | CS(=O)(=O)N1CCC(c2ccc(OC3CCN(Cc4nc(C(F)(F)F)no4)CC3)cc2)CC1 [Example B26] | 37 nM
43 | CS(=O)(=O)N1CCN(c2ccc(OC3CN(Cc4ccc(C(F)(F)F)cc4)C3)cn2)C(=O)C1 [Example A17] | 26 nM
44 | CC(C)c1ccc(CN2CC(Oc3ccc(N4CCN(S(C)(=O)=O)CC4)cc3)C2)cc1 [Example A22] | 116 nM
45 | CS(=O)(=O)N1CCC(c2cc(F)c(OC3CN(Cc4csc(C(F)(F)F)n4)C3)c(F)c2)CC1 [Example B19] | 448 nM
46 | CC(C)c1ccc(CN2CC(Oc3ccc(N4CCN(S(C)(=O)=O)CC4=O)nc3)C2)cc1 [Example A18] | 11 nM
47 | CS(=O)(=O)N1CCC(c2cc(F)c(OC3CCN(Cc4cccc(C(F)(F)F)c4)CC3)c(F)c2)CC1 [Example A45] | 48 nM
48 | CS(=O)(=O)N1CCC(c2ccc(OC3CCN(Cc4nc(C(F)(F)F)no4)CC3)cc2F)CC1 [Example B7] | 16 nM
49 | CS(=O)(=O)N1CCC(c2cc(F)c(OC3CCN(Cc4noc(C(F)(F)F)n4)CC3)c(F)c2)CC1 [Example B22] | 443 nM
50 | CS(=O)(=O)N1CCN(c2cnc(OC3CN(Cc4ccc(OC(F)(F)F)cc4)C3)cn2)C(=O)C1 [Example A4, 4-(methylsulfonyl)-1-(5-(1-(4-(trifluoromethoxy)benzyl)azetidin-3-yloxy)pyrazin-2-yl)piperazin-2-one] | 12 nM
51 | CS(=O)(=O)N1CCC(c2cc(F)c(OC3CCN(Cc4nc(C(F)(F)F)no4)CC3)cc2F)CC1 [Example B28] | 5 nM
52 | CCCS(=O)(=O)N1CCN(c2ccc(OC3CN(Cc4ccc(C(F)(F)F)cc4)C3)cn2)CC1 [Example A21] | 39 nM
53 | CC(C)c1ccc(CN2CC(Oc3cnc(N4CCN(S(C)(=O)=O)CC4=O)cn3)C2)cc1 [Example A19] | 12 nM
